Assay results: USRE44768E1, “Rapamycin hydroxyesters” (Wyeth LLC, priority 1994, dated 2014)
Where “and” joins values, the source holds several entries; their conditions need not be identical. Equal values may be shown once. Read-outs that look alike come from different tables or passages of the source.

Tests used:
[1] = test system: cells from the thymus of normal BALB/c mice; assay: comitogen-induced thymocyte proliferation procedure (LAF); conditions: for LAF ratio: ratio compared with rapamycin, greater than 1 = inhibited thymocyte proliferation to a greater extent than rapamycin; for IC50: read-out: LAF IC50
Protocol: Cells are cultured with and without various concentrations of rapamycin, cyclosporin A, or test compound. Cells are harvested and incorporated radio-activity is determined. Inhibition of lymphoproliferation is assessed as percent change in counts per minute from nondrug treated controls. For each compound evaluated, rapamycin was also evaluated for the purpose of comparison. An IC50 was obtained for each test compound as well as for rapamycin. […] The results obtained are provided as an IC50 and as the percent inhibition of T-cell proliferation at 0.1 μM. […] A positive ratio indicates immunosuppressive activity.

[2] = test system: adjuvant arthritis (uninjected hind paw, T-cell mediated inflammation); assay: adjuvant arthritis standard pharmacological test procedure; format: in vivo, male inbread Wistar Lewis rats; conditions: uninjected paw at day 16 versus control; oral dose of 5 mg/kg
Protocol: The adjuvant arthritis standard pharmacological test procedure measures the ability of test compounds to prevent immune mediated inflammation and inhibit or treat rheumatoid arthritis. The following briefly describes the test procedure used. A group of rats (male inbread Wistar Lewis rats) are pre-treated with the compound to be tested (1 h prior to antigen) and then injected with Freud's Complete Adjuvant (FCA) in the right hind paw to induce arthritis. The rats are then orally dosed on a Monday, Wednesday, Friday schedule from day 0-14 for […]. Both hind paws are measured on days 16, 23, and 30. The difference in paw volume (mL) from day 16 to day 0 is determined and a percent change from control is obtained. […] The right hind paw inflammation, on the other hand, is caused by non-specific inflammation. Compounds were tested at a dose of 5 mg/kg.

[3] = test system: pinch skin graft from male BALB/c donors transplanted to male C3H(H-2K) recipients; assay: pinch skin graft survival test procedure; format: in vivo; conditions: mean graft survival time ± S.D., dose of 4 mg/kg
Protocol: Representative compounds of this invention were also evaluated in an in vivo test procedure designed to determine the survival time of pinch skin graft from male BALB/c donors transplanted to male C3H(H-2K) recipients. The method is adapted from Billingham R. E. and Medawar P. B., J. Exp. Biol. 28:385-402, (1951). Briefly, as pinch skin graft from the donor was grafted on the dorsum of the recipient as a allograft, and an isograft was used as control in the same region. The recipients were treated with either varying concentrations of test compounds intraperitoneally or orally. Rapamycin was used as a test control. Untreated recipients serve as rejection control. The graft was monitored daily and observations were recorded until the graft became dry and formed a blackened scab. This was considered as the rejection day. The mean graft survival time (number of days±S.D.) of the drug treatment group was compared with the control group. […] Results are expressed as the mean survival time in days. Untreated (control) pinch skin grafts are usually rejected within 6-7 days. Compounds were tested using a dose of 4 mg/kg.

[4] = thymocytes cultured 72 hours with PHA and IL-1, tritiated thymidine incorporation

| Molecule | LAF ratio [1] | IC50 [1, 4] [nM] | further results |
| --- | --- | --- | --- |
| CO[C@H]1C[C@@H]2CC[C@@H](C)[C@@](O)(O2)C(=O)C(=O)N2CCCC[C@H]2C(=O)O[C@H]([C@H](C)C[C@@H]2CC[C@@H](OC(=O)CO)[C@H](OC)C2)CC(=O)[C@H](C)/C=C(\C)[C@@H](O)[C@@H](OC)C(=O)[C@H](C)C[C@H](C)/C=C/C=C/C=C/1C [Example 2, Rapamycin 42-ester with hydroxyacetic acid] | 0.83 | 1.8 | Percent change in adjuvant arthritis versus control [2]: −88% |
| COC1CC2CCC(C)C(O)(O2)C(=O)C(=O)N2CCCCC2C(=O)OC(C(C)CC2CCC(OC(=O)C(C)(C)COC3CCCCO3)C(OC)C2)CC(=O)C(C)C=C(C)C(O)C(OC)C(=O)C(C)CC(C)C=CC=CC=C1C (centres unmarked) [Example 3, Rapamycin 42-ester with 2,2-dimethyl-3-(tetrahydropyran-2-yloxy)propionic acid] | 0.34 | 7.1 | – |
| CO[C@H]1C[C@@H]2CC[C@@H](C)[C@@](O)(O2)C(=O)C(=O)N2CCCC[C@H]2C(=O)O[C@H]([C@H](C)C[C@@H]2CC[C@@H](OC(=O)C(C)(C)CO)[C@H](OC)C2)CC(=O)[C@H](C)/C=C(\C)[C@@H](O)[C@@H](OC)C(=O)[C@H](C)C[C@H](C)/C=C/C=C/C=C/1C [Example 4, Rapamycin 42-ester with 3-hydroxy-2,2-dimethylpropionic acid] | 1.25 | 0.8 | Skin graft survival time [3]: 10.7 ± 0.5 days |
| COC1CC2CCC(C)C(O)(O2)C(=O)C(=O)N2CCCCC2C(=O)OC(C(C)CC2CCC(OC(=O)C3COC(C)(C)O3)C(OC)C2)CC(=O)C(C)C=C(C)C(O)C(OC)C(=O)C(C)CC(C)C=CC=CC=C1C (centres unmarked) [Example 5, Rapamycin 42-ester with 2,2-dimethyl[1,3]dioxalane-4-carboxylic acid] | 0.74 | 1.2 | – |
| COC1CC2CCC(C)C(O)(O2)C(=O)C(=O)N2CCCCC2C(=O)OC(C(C)CC2CCC(OC(=O)C3COC(C)(C)O3)C(OC)C2)CC(=O)C(C)C=C(C)C(OC(=O)C2COC(C)(C)O2)C(OC)C(=O)C(C)CC(C)C=CC=CC=C1C (centres unmarked) [Example 6, Rapamycin 31,42-diester with 2,2-dimethyl[1,3]dioxalane-4-carboxylic acid] | 0.5 | 1.3 | – |
| COC1CC2CCC(C)C(O)(O2)C(=O)C(=O)N2CCCCC2C(=O)OC(C(C)CC2CCC(OC(=O)C3COC(C)(C)OC3)C(OC)C2)CC(=O)C(C)C=C(C)C(O)C(OC)C(=O)C(C)CC(C)C=CC=CC=C1C (centres unmarked) [Example 8] | 0.45 | 0.76 | – |
| COC1CC2CCC(C)C(O)(O2)C(=O)C(=O)N2CCCCC2C(=O)OC(C(C)CC2CCC(OC(=O)C(CO)CO)C(OC)C2)CC(=O)C(C)C=C(C)C(O)C(OC)C(=O)C(C)CC(C)C=CC=CC=C1C (centres unmarked) [Example 9, Rapamycin 42-ester with 3-hydroxy-2-hydroxymethylpropionic acid] | 0.57 | 0.84 | – |
| CO[C@H]1C[C@@H]2CC[C@@H](C)[C@@](O)(O2)C(=O)C(=O)N2CCCC[C@H]2C(=O)O[C@H]([C@H](C)C[C@@H]2CC[C@@H](OC(=O)C3(C)COC(C)(C)OC3)[C@H](OC)C2)CC(=O)[C@H](C)/C=C(\C)[C@@H](O)[C@@H](OC)C(=O)[C@H](C)C[C@H](C)/C=C/C=C/C=C/1C [Example 10] | 0.41 | 4.9 | Skin graft survival time [3]: 11.0 ± 1.3 days |
| CO[C@H]1CC2CC[C@@H](C)[C@@](O)(O2)C(=O)C(=O)N2CCCC[C@H]2C(=O)O[C@H]([C@H](C)C[C@@H]2CC[C@@H](OC(=O)C(C)(CO)CO)[C@H](OC)C2)CC(=O)[C@H](C)/C=C(\C)[C@@H](O)[C@@H](OC)C(=O)[C@H](C)C[C@H](C)/C=C/C=C/C=C/1C [Example 11, Rapamycin 42-ester with 2,2-bis-(hydroxymethyl)propionic acid] | – | – | Skin graft survival time ([3]; 4 mg/kg): 11.4 ± 1.5 days and 12.0 ± 1.1 days; Percent change in adjuvant arthritis versus control [2]: < 88% |
| COC1CC2CCC(C)C(O)(O2)C(=O)C(=O)N2CCCCC2C(=O)OC(C(C)CC2CCC(OC(=O)C3(C)COC4(CCCCC4)OC3)C(OC)C2)CC(=O)C(C)C=C(C)C(O)C(OC)C(=O)C(C)CC(C)C=CC=CC=C1C (centres unmarked) [Example 13, Rapamycin 42-ester with 3-methyl-1,5-dioxa-spiro[5.5]undecane 3-carboxylic acid] | 2.00 | 0.6 | – |
| COC1CC2CCC(C)C(O)(O2)C(=O)C(=O)N2CCCCC2C(=O)OC(C(C)CC2CCC(OC(=O)C3(C)COC4(CCCCC4)OC3)C(OC)C2)CC(=O)C(C)C=C(C)C(OC(=O)C2(C)COC3(CCCCC3)OC2)C(OC)C(=O)C(C)CC(C)C=CC=CC=C1C (centres unmarked) [Example 14, Rapamycin 31.42-diester with 3-methyl-1.5-dioxa-spiro[5.5]undecane 3-carboxylic acid] | – | – | percent inhibition of T-cell proliferation ([1]; at 0.1 μM): 43% |
| CO[C@H]1C[C@@H]2CC[C@@H](C)[C@@](O)(O2)C(=O)C(=O)N2CCCC[C@H]2C(=O)O[C@H]([C@H](C)C[C@@H]2CC[C@@H](O)[C@H](OC)C2)CC(=O)[C@H](C)/C=C(\C)[C@@H](O)[C@@H](OC)C(=O)[C@H](C)C[C@H](C)/C=C/C=C/C=C/1C [rapamycin, Rapamycin] | – | – | IC50 ([1]; Mus musculus, Thymocyte, 72 h): 0.6 to 1.5 nM |
| Rapamycin 42-ester with 2,2-dimethyl-5-(2-trimethylsilanylethoxymethyl)[1,3]dioxane-5-carboxylic acid [Example 12] | 0.05 | 7.2 | – |
| Rapamycin 42-ester with 2,3-dihydroxypropionic acid [Example 7] | 0.40 | 1.4 | – |
